What is called IC50 is the concentration needed to halve the response being measured. The LD50 is the dose expected to kill half of the subjects tested. By EC50 is commonly meant the concentration that produces a half-maximal response.

The subject of one data set is NA activity. The class given is biochemical.
The test system of data set [1] is influenza A PR8 virus. The format is cell-based, Influenza A/Puerto Rico/8/34 (H1N1).
In the next data set the test system is influenza A NY virus. The format is cell-based.
The next data set concerns influenza A NC virus. The class given is cell-based.
The next data set deals with hamsters. The conditions noted are these: hamster, in vivo; cited from earlier work.
The test system of a further data set is mice. The conditions noted are these: mouse, in vivo; cited from earlier work.
A short description of a further data set: in vitro. The conditions noted are these: pH 7.2.
Data set [2] relates to influenza A PR8 virus. The format is cell-based, Influenza A/Puerto Rico/8/34 (H1N1). The source holds these as a separate data set.
A further data set addresses recombinant N4 protein (Influenza A virus, UniProt Q6XV43). As to the kind of experiment: biochemical.
A further data set deals with influenza A or B viruses. The class given is cell-based.
The target in data set [3] is NA from influenza NC virus (Influenza A virus, UniProt Q7TG96). The format is biochemical. The conditions noted are these: read-out: IC50 NA activity.
For the next data set, the system named is NMRI mice. The conditions noted are these: mouse, in vivo; cited from earlier work.
Data set [4] concerns influenza A and B viruses. The format is cell-based.
Data set [5] deals with influenza A PR8 virus. The format is cell-based, Influenza A/Puerto Rico/8/34 (H1N1). The source holds these as a separate data set.
For data set [6], the system named is influenza A strains PR8, NY or NC. The class given is cell-based.
Data set [7] has as its system influenza A PR8 virus. As to the kind of experiment: microbe, parasite or virus in culture. The class given is cell-based. The conditions noted are these: PR8, MDCK, 48 h, read-out: minimum effective dose required to protect 50% of cells (EC50).
Data set [8] has as its system influenza A PR8 virus. The class given is cell-based.

In brackets after ≈: the same amount, converted by molar mass. Several values for one entry are separate records, joined by “and”; a condition that tells them apart may be missing. Identical values can stand only once. Counter-ions that a name gives are not always drawn. Where only a bound is given, the exact number is not on record here.

As to `NC12CC3CC(CC(C3)C1)C2` [AH, amantadine hydrochloride], in the data set with NA activity, the “inhibition of NA activity” value is “no inhibition”. Further, in the data set on influenza A PR8 virus [1], the “Virus yield, Cells” value is reported as 4.7×10^5 PFU/ml and the “Virus yield, Medium” value was 3×10^5 PFU/ml.

Take `O=C(O)C1=CC(=C(c2ccc(O)c(C(=O)O)c2)c2ccc(O)c(C(=O)O)c2)C=CC1=O` [ATA, Aurintricarboxylic acid]: in the data set on influenza A NY virus, the “reduction of virus abundance in medium” value was 72% and 81%. Moreover, the “reduction of virus abundance in medium” value in the data set with influenza A NC virus was 86% and 94%. In addition, the “well tolerated infusion dose” value in the data set with hamsters is listed as “up to 1 mg/kg/hour”. The “single dose tolerated well” value in the data set on mice was at most 4 mg/kg. In addition, the CC50 at 48 h in “in vitro” was 577 µg/mL (≈ 1370 µM). For the same compound, the “viral NP RNA level” value in the data set on influenza A PR8 virus [2] is reported as “substantial reduction in viral NP RNA”. On recombinant N4 protein, the IC50 was 2.37 µM. For the same compound, the “number and size of plaques” value in the data set with influenza A or B viruses was “reduced both the number and size of plaques”. Further, the half-maximal inhibitory concentration (IC50) in data set [3] was 39.3 µM. In the data set on NMRI mice, the 50% lethal dose (LD50) is reported as 340 mg/kg and the median life span is 18 days. Further, the “plaques after pre-incubation of virus with ATA” value in [4] is recorded as “reduced the number of plaques”. In the data set with influenza A PR8 virus [1], the “Virus yield, Cells” value is on record as 5×10^4 PFU/ml; the “Virus yield, Medium” value was 1.3×10^4 PFU/ml; the “magnitude of inhibition, production of infectious viral particles” value was “at least 3 logs”. The “viral aggregation by electron microscopy” value with influenza A PR8 virus [5] is recorded as “induce viral aggregation on the cell surface”. Besides, in [6], the “protection from virus-induced CPE, prophylactic exposure” value is “did not protect cells from virus-induced CPE” and the “protection of infected MDCK cells (neutral red uptake)” value is on record as “significantly protected MDCK cells from influenza infection”. The EC50 in the data set with influenza A PR8 virus [7] is 6.5 µg/mL (≈ 15.4 µM). For the same compound, in the data set with influenza A PR8 virus [8], the “reduction of virus abundance in medium” value was 93% and 95%.

Regarding “N-acetyl-2,3-dehydro-2-deoxyneuraminic acid [NAA]”, the “inhibition of NA activity” value with NA activity was “inhibited NA activity with very low IC50 values”. Besides, in the data set on influenza A PR8 virus [1], the “Virus yield, Cells” value is reported as 6.2×10^6 PFU/ml and the “Virus yield, Medium” value is given as 4.7×10^6 PFU/ml.

The record behind these values is article PMC2792043 (PLoS ONE, 2009).
